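Test compounds were applied to cells in 96-well plates for 48 hours at 5 doses. GI50 is the concentration that inhibits growth by half.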 Calls of active or inactive are those of the source. No stated cut-off is given here; in the data, active = GI50 up to about 1.1 µM and inactive = higher.
Key:
Assay in all cases: inhibition of tumour cell growth, NCI panel, 48 h
CCRF-CEM = tested on: CCRF-CEM
COLO 205 = tested on: COLO 205
HL-60 = tested on: HL-60
HOP-62 = tested on: HOP-62
HOP-92 = tested on: HOP-92
K562 = tested on: K562
KM12 = tested on: KM12
LOX IMVI = tested on: LOX IMVI
MCF7 = tested on: MCF7
MDA-MB-435 = tested on: MDA-MB-435
MDA-N = tested on: MDA-N
Malme-3M = tested on: Malme-3M
NCI-H23 = tested on: NCI-H23
RPMI-8226 = tested on: RPMI-8226
SF-268 = tested on: SF-268
SK-MEL-5 = tested on: SK-MEL-5
SK-OV-3 = tested on: SK-OV-3
SNB-75 = tested on: SNB-75
UACC-257 = tested on: UACC-257
UACC-62 = tested on: UACC-62

In the case of `COc1ccc(/C=C2\CCCC(CN(C)C)C2=O)cc1` (stereo not given), the GI50 (CCRF-CEM) is reported as 0.971 µM (active), the GI50 (COLO 205) is reported as 2.1 µM (inactive) and the GI50 (HL-60) is reported as 0.618 µM (active). The GI50 (HOP-62) was 17.5 µM (inactive), the GI50 (HOP-92) was 4.35 µM (inactive) and the GI50 (K562) was 1.24 µM (inactive). The GI50 (KM12) was 1.3 µM (inactive), the GI50 (LOX IMVI) was 1.34 µM (inactive) and the GI50 (MCF7) was 0.638 µM (active). For the same compound, the GI50 (MDA-MB-435) was 2.61 µM (inactive), the GI50 (MDA-N) was 2.96 µM (inactive) and the GI50 (Malme-3M) was 2.53 µM (inactive). For the same compound, the GI50 (NCI-H23) was 7.71 µM (inactive), the GI50 (RPMI-8226) was 0.223 µM (active) and the GI50 (SF-268) was 3.03 µM (inactive). The GI50 (SK-MEL-5) was 15.3 µM (inactive), the GI50 (SK-OV-3) was 9.89 µM (inactive) and the GI50 (SNB-75) was 7.45 µM (inactive). For the same compound, the GI50 (UACC-257) was 3.26 µM (inactive) and the GI50 (UACC-62) was 1.95 µM (inactive).

For `N#Cc1cccc(C2ON=C(c3ccc([N+](=O)[O-])cc3)N2C23CC4CC(CC(C4)C2)C3)c1` (stereo not given), the GI50 (CCRF-CEM) was > 100 µM (inactive), the GI50 (COLO 205) was > 100 µM (inactive) and the GI50 (HL-60) was 8.69 µM (inactive). For the same compound, the GI50 (HOP-62) was > 100 µM (inactive), the GI50 (HOP-92) was 69.2 µM (inactive) and the GI50 (K562) was > 100 µM (inactive). The GI50 (KM12) was > 100 µM (inactive), the GI50 (LOX IMVI) was 74.1 µM (inactive) and the GI50 (MCF7) was 34.4 µM (inactive). For the same compound, the GI50 (MDA-MB-435) was > 100 µM (inactive), the GI50 (MDA-N) was > 100 µM (inactive) and the GI50 (Malme-3M) was 59.7 µM (inactive). For the same compound, the GI50 (NCI-H23) was > 100 µM (inactive), the GI50 (RPMI-8226) was > 100 µM (inactive) and the GI50 (SF-268) was > 100 µM (inactive). For the same compound, the GI50 (SK-MEL-5) was 43.6 µM (inactive), the GI50 (SK-OV-3) was > 100 µM (inactive) and the GI50 (SNB-75) was > 100 µM (inactive). For the same compound, the GI50 (UACC-257) was > 100 µM (inactive) and the GI50 (UACC-62) was > 100 µM (inactive).

`Cn1cnc2c1c(=O)n(CCNCCO)c(=O)n2C` was tested, and the GI50 (CCRF-CEM) was > 100 µM (inactive), the GI50 (COLO 205) was > 100 µM (inactive) and the GI50 (HL-60) was > 100 µM (inactive). For the same compound, the GI50 (HOP-62) was > 100 µM (inactive), the GI50 (HOP-92) was > 100 µM (inactive) and the GI50 (K562) was > 100 µM (inactive). The GI50 (KM12) was > 100 µM (inactive), the GI50 (LOX IMVI) was > 100 µM (inactive) and the GI50 (MCF7) was > 100 µM (inactive). The GI50 (MDA-MB-435) was > 100 µM (inactive), the GI50 (MDA-N) was > 100 µM (inactive) and the GI50 (Malme-3M) was > 100 µM (inactive). For the same compound, the GI50 (NCI-H23) was > 100 µM (inactive), the GI50 (RPMI-8226) was > 100 µM (inactive) and the GI50 (SF-268) was > 100 µM (inactive). The GI50 (SK-MEL-5) was > 100 µM (inactive), the GI50 (SK-OV-3) was > 100 µM (inactive) and the GI50 (SNB-75) was > 100 µM (inactive). For the same compound, the GI50 (UACC-257) was > 100 µM (inactive) and the GI50 (UACC-62) was > 100 µM (inactive).

For `CC1=NN(C(=O)CC(=O)Nc2ccccc2Cl)C(=O)C1/N=N\c1ccc(S(=O)(=O)c2ccc(/N=N/C3C(=O)N(C(=O)CC(=O)Nc4ccccc4Cl)N=C3C)cc2)cc1` (stereo not given), the GI50 (CCRF-CEM) was > 100 µM (inactive), the GI50 (COLO 205) was > 100 µM (inactive) and the GI50 (HL-60) was > 100 µM (inactive). The GI50 (HOP-62) was > 100 µM (inactive), the GI50 (HOP-92) was > 100 µM (inactive) and the GI50 (K562) was > 100 µM (inactive). The GI50 (KM12) was > 100 µM (inactive), the GI50 (LOX IMVI) was 54.1 µM (inactive) and the GI50 (MCF7) was > 100 µM (inactive). For the same compound, the GI50 (MDA-MB-435) was > 100 µM (inactive), the GI50 (MDA-N) was > 100 µM (inactive) and the GI50 (Malme-3M) was > 100 µM (inactive). For the same compound, the GI50 (NCI-H23) was > 100 µM (inactive), the GI50 (RPMI-8226) was > 100 µM (inactive) and the GI50 (SF-268) was > 100 µM (inactive). The GI50 (SK-MEL-5) was > 100 µM (inactive), the GI50 (SK-OV-3) was > 100 µM (inactive) and the GI50 (SNB-75) was > 100 µM (inactive). The GI50 (UACC-257) was > 100 µM (inactive) and the GI50 (UACC-62) was > 100 µM (inactive).

In the case of `CN(C)CCNc1ccc2c(=O)n(CCN(C)C)c(=O)n3c4ccccc4c(=O)c1c23`, the GI50 (CCRF-CEM) is reported as < 0.01 µM (active), the GI50 (COLO 205) is reported as 0.17 µM (active) and the GI50 (HL-60) is reported as < 0.01 µM (active). For the same compound, the GI50 (HOP-62) was 0.0185 µM (active), the GI50 (HOP-92) was 0.0516 µM (active) and the GI50 (K562) was 0.0133 µM (active). For the same compound, the GI50 (KM12) was 0.116 µM (active), the GI50 (LOX IMVI) was 0.0624 µM (active) and the GI50 (MCF7) was < 0.0174 µM (active). For the same compound, the GI50 (MDA-MB-435) was 0.145 µM (active), the GI50 (MDA-N) was 0.133 µM (active) and the GI50 (Malme-3M) was 0.18 µM (active). The GI50 (NCI-H23) was 0.0505 µM (active), the GI50 (RPMI-8226) was 0.0182 µM (active) and the GI50 (SF-268) was 0.0512 µM (active). For the same compound, the GI50 (SK-MEL-5) was 0.0427 µM (active), the GI50 (SK-OV-3) was < 0.0392 µM (active) and the GI50 (SNB-75) was 0.0513 µM (active). The GI50 (UACC-257) was 0.34 µM (active) and the GI50 (UACC-62) was 0.0614 µM (active).

For `CC(C)[Si]1(C(C)C)OCC2OC(N3C(=O)NC(=O)C[C@@H]3C(O)c3ccccc3)CC2O[Si](C(C)C)(C(C)C)O1` (stereo not given in full), the GI50 (CCRF-CEM) was 2.54 µM (inactive), the GI50 (COLO 205) was 9.86 µM (inactive) and the GI50 (HL-60) was 2.65 µM (inactive). For the same compound, the GI50 (HOP-62) was 11.9 µM (inactive), the GI50 (HOP-92) was 7.26 µM (inactive) and the GI50 (K562) was 2.76 µM (inactive). For the same compound, the GI50 (KM12) was 2.4 µM (inactive), the GI50 (LOX IMVI) was 5.24 µM (inactive) and the GI50 (MCF7) was 3.92 µM (inactive). For the same compound, the GI50 (MDA-MB-435) was 5.5 µM (inactive), the GI50 (MDA-N) was 4.3 µM (inactive) and the GI50 (Malme-3M) was 5.41 µM (inactive). The GI50 (NCI-H23) was 7.98 µM (inactive), the GI50 (RPMI-8226) was 4.31 µM (inactive) and the GI50 (SF-268) was 4.14 µM (inactive). The GI50 (SK-MEL-5) was 11.3 µM (inactive), the GI50 (SK-OV-3) was 5.71 µM (inactive) and the GI50 (SNB-75) was 4.54 µM (inactive). The GI50 (UACC-257) was 4.85 µM (inactive) and the GI50 (UACC-62) was 8.91 µM (inactive).

In the case of `Cc1c(C#N)c2nnn(-c3ccc(Cl)cc3)c(=O)n2c1-c1ccccc1`, the GI50 (CCRF-CEM) is reported as 0.0991 µM (active), the GI50 (COLO 205) is reported as 0.0357 µM (active) and the GI50 (HL-60) is reported as 0.0752 µM (active). For the same compound, the GI50 (HOP-62) was 0.108 µM (active), the GI50 (HOP-92) was 0.474 µM (active) and the GI50 (K562) was 0.0586 µM (active). For the same compound, the GI50 (KM12) was 0.051 µM (active), the GI50 (LOX IMVI) was 0.221 µM (active) and the GI50 (MCF7) was 0.42 µM (active). The GI50 (MDA-MB-435) was < 0.0188 µM (active), the GI50 (MDA-N) was 0.0173 µM (active) and the GI50 (Malme-3M) was 0.0468 µM (active). For the same compound, the GI50 (NCI-H23) was 0.167 µM (active), the GI50 (RPMI-8226) was 0.16 µM (active) and the GI50 (SF-268) was 0.199 µM (active). For the same compound, the GI50 (SK-MEL-5) was 0.0605 µM (active), the GI50 (SK-OV-3) was 0.145 µM (active) and the GI50 (SNB-75) was 0.275 µM (active). The GI50 (UACC-257) was 3.15 µM (inactive) and the GI50 (UACC-62) was 0.149 µM (active).

Source: ChEMBL document CHEMBL1201862, “PubChem BioAssay data set” (2004)
